Where two headings read alike, the source gives them in different places.
How the values were obtained:
[1] = Method: High concentrations permit reduced administration times (important for patient compliance), but suffer in that their associated osmolality and intense taste may mitigate this advantage. […] Nebulized solutions were inhaled to a shallow throat level and analyzed for: taste (saltiness), throat irritation, and sore throat. […] Sodium chloride is also considered in the art as helpful to alleviate cough. Therefore, this was also tested.
Summary. […] Finally, because viscosity and surface tension can be important contributors to optimal I-neb (Respironics, Inc., Murrysville, Pa.), Aerogen Aeroneb Go (Aerogen, Inc., Galway, Ireland) or other vibrating mesh nebulizer performance, potential formulations were screened in these devices to measure the effect of formulation on device output rate and aerosol particle size.

[2] = system: Isolated rabbit lungs
[3] = system: hypoxia-induced pulmonary hypertension; settings: cited from earlier work

For `O=NO` [sodium nitrite], the “level of nitric oxide produced” value ([1]; 75 mg/mL sodium nitrite, 1.56 mM citric acid, […] sodium saccharin, pH 5.41 admixed dosing solution) was ~200 parts per billion, the “nitric oxide produced and released” value ([1]; aqueous sodium nitrite titrated with citric acid) was ~200 parts per billion and the “nitric oxide relative to same formulation lacking ascorbic acid” value ([1]; citric acid, pH ~5.5, 1:256 molar ratio ascorbic acid to nitrite) was ~4 fold. For the same compound, the “nitric oxide produced and released upon vibrating mesh nebulization” value ([1]; nitrite:ascorbic acid 256:1 mixture, Aeroneb Go Lab) was ~800 ppb, the “level of nitric oxide produced” value ([1]; same dosing solution in the absence of citric acid) was ~150 parts per billion and the “level of nitric oxide produced” value ([1]; same formulation with ascorbic acid) was ~800 parts per billion. The “hypoxia-induced elevated PAP” value ([2]; 16.7 mg/mL sodium nitrite in phosphate buffer or phosphate/citric acid buffer, 5 min nebulization) was “significantly reduced”, the “expired nitric oxide compared to control” value ([2]; both sodium nitrite preparations (phosphate buffer; citric acid/phosphate buffer)) was “significantly increased” and the “lung-delivered dose up to which lung weights (edema) were stable” value ([2]; mg sodium nitrite (2.8 mg nitrite)) was “up to 4.2 mg”. The “decrease of PAP compared with pre-drug hypoxic challenge” value ([2]; sodium nitrite in phosphate buffer or citric acid/phosphate buffer, nebulized during second hypoxic challenge (3% oxygen), p<0.05) was “over 50%”, the “half life of effect on hypoxia-induced PAP” value ([2]; sodium nitrite in phosphate buffer, nebulized during third hypoxic challenge) was ~10 min and the “NO in expired air, peak” value ([3]; after 20 minutes inhalation) was “approximately 15 ppb”. For the same compound, the “reduction in hypoxia-induced pulmonary hypertension compared with saline nebulization” value ([3]; newborn lambs, inhaled nitrite 15 mg/minute) was “approximately 65%”, the minimal effective dose ([3]; newborn lambs) was 1.5 mg/min and the “time reduction in PAP was maintained after cessation of inhalation” value ([3]; newborn lambs) was “at least 1 hour”.

Reference: patent US20090196930A1, “AEROSOLIZED NITRITE AND NITRIC OXIDE -DONATING COMPOUNDS AND USES THEREOF” (Aires Pharmaceuticals, Inc., priority 2007, published 2009)
